The results in this text go back to patent US7858788B2, “Bicyclic carbamoylpyridone derivative having HIV integrase inhibitory activity” (Shionogi & Co., Ltd., priority 2005, dated 2010).

This experiment deals with HIV integrase (Human immunodeficiency virus type 1 group M subtype B, UniProt P04585). Put plainly: HIV integrase inhibitory activity assay (immunoplate, substrate DNA / target DNA, OD405). It counts as biochemical. To be noted: read-out: Integrase inhibitory activity (IC50, ng/ml) (converted). Here is the method: The HIV integrase inhibitory activity was investigated based on the following assay method.
(1) Preparation of DNA Solution
By the same method as that described in Experimental Example 1 of WO 2004/024693, a substrate DNA solution (2 pmol/ml) and a target DNA solution (5 pmol/ml) were prepared. […] Each sequence of a substrate DNA and a target DNA is as described in the same Experimental Example.
(2) Measurement of Inhibition Rate (IC50 Value)
Streptavidin (manufactured by Vector Laboratories) was dissolved in a 0.1M carbonate buffer solution (composition: 90 mM Na2CO3, 10 mM NaHCO3) to a concentration of 40 μg/ml. Each […] of this solution was added to a well of an immunoplate (manufactured by NUNC), and this is allowed to stand at 4° C. overnight to adsorb. Then, each well was washed with a phosphate buffer (composition: 13.7 mM NaCl, 0.27 mM KCl, 0.43 mM Na2HPO4, 0.14 mM KH2PO4) two times, and […] of a phosphate buffer containing 1% skim milk was added to block it for 30 minutes. Further, each well was washed with a phosphate buffer two times, […] of a substrate DNA solution (2 pmol/ml) was added to adsorb at room temperature for 30 minutes while shaking, and this was washed with a phosphate buffer two times and, then, distilled water once.
Then, to each well prepared as described above were added 12 ml of a buffer (composition: 150 mM MOPS (pH7.2), 75 mM MnCl2, 50 mM 2-mercaptoethanol, 25% glycerol, 500 μg/ml bovine serum albumin-fraction V), and 51 ml of a reaction solution prepared from […] of distilled water. Then, 9 ml of an integrase solution (30 pmol) was added, and the mixture was mixed well. To a well as a negative control (NC) was added 9 ml of a diluting solution (composition: 20 mM MOPS (pH7.2), 400 mM potassium glutamete, 1 mM EDTA, 0.1% NP-40, 20% glycerol, 1 mM DTT, 4 M urea), and this was mixed well using a plate mixer. […]
C abs.; absorbance of well of compound
NC abs.: absorbance of NC
PC abs.: absorbance of PC

As for `O=C(NCc1ccc(F)cc1)c1cn2ccn(Cc3ccc(F)cc3)c(=O)c2c(O)c1=O` [Example A-30, 2-(4-Fluorobenzyl)-9-hydroxy-1,8-dioxo-1,8-dihydro-2H-pyrid[1,2-a]pyrazine-7-carboxylic acid 4-fluoro-benzylamide], the IC50 was 2.29 nM.

With `COCCN1CC(O)n2cc(C(=O)NCc3ccc(F)cc3)c(=O)c(O)c2C1=O` [Example D-41, 4,9-Dihydroxy-2-(2-methoxy-ethyl)-1,8-dioxo-1,3,4,8-tetrahydro-2H-pyrid[1,2-a]pyrazine-7-carboxylic acid 4-fluoro-benzylamide], the IC50 is 7.89 nM.

As for `COCCN1C(=O)c2c(O)c(=O)c(C(=O)NCc3ccc(F)cc3COC)cn2CC1O` (stereo not drawn) [Example E-1, 3,9-Dihydroxy-2-(2-methoxy-ethyl)-1,8-dioxo-1,3,4,8-tetrahydro-2H-pyrid[1,2-a]pyrazine-7-carboxylic acid 4-fluoro-2-methoxymethyl-benzylamide], the IC50 is 11.1 nM.
